# Source: patent publication EP1104674A1, “O,o'-dihydroxy azo dyes as medicinal components with TPO-agonistic or -synergetic activity” (Curacyte AG, priority 1999, dated 2001)
# Biological target: T1, humanen mpl-Rezeptor (Homo sapiens, UniProt P40238)
# T1 sequence (P40238 26-635): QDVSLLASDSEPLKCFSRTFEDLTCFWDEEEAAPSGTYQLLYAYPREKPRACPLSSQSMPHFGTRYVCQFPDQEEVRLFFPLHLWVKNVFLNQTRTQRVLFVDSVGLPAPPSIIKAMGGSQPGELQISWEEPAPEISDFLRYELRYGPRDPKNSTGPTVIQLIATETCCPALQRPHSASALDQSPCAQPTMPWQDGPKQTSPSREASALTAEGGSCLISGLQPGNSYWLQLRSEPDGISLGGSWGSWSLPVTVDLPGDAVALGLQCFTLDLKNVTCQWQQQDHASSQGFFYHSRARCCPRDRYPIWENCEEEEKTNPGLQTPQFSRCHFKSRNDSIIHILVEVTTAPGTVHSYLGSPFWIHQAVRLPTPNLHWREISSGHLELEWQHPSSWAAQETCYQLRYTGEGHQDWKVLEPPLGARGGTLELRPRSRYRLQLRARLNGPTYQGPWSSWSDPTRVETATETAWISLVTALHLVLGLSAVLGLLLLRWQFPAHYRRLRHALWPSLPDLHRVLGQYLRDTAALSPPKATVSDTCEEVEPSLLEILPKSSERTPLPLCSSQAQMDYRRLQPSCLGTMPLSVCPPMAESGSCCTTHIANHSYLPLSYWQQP
# Assay: TPO-dependent cell proliferation test with BaF3 cells transfected with the human mpl receptor (BaF3/mpl), WST readout
# Assay type: cell-based
# Details: BaF3-mpl Rezeptor Proliferationstest; 48 bis 72 h; half-maximal stimulation after background subtraction
# Description: Die Bioaktivität der erfindungsgemäßen Verbindungen kann mittels eines TPO-abhängigen Zellproliferationstests gemessen werden. Die Substanzen dürfen keine Wirkung auf die nicht transfektierten parenteralen BaF3 Zellen ausüben. Murine IL-3-abhängig wachsende BaF3 Zellen wurden mit dem humanen mpl-Rezeptor transfektiert. In Abwesenheit von IL-3 ist die Proliferation und das Überleben dieser Zellen abhängig von TPO. Die parentale, untransfektierte Zell-Linie reagiert nicht auf humanes TPO, proliferiert aber in Gegenwart von IL-3. Die Bestimmung der Zellproliferation erfolgt nach literaturbekannten Verfahren (WO 96/40750). Die chemischen Substanz-Bibliotheken wurden in Bioassays mit den beiden obigen Zell-Linien gescreent. Die Zellen wurden in Gegenwart von IL-3 (BaF3 parental) bzw. TPO (BaF3-mpl-Rezeptor tragend = BaF3/mpl) in RPMI 1640 Medium in Gegenwart von 10 % FCS (fetales Kälberserum) gezüchtet. Für den Test wurden die Zellen zweimal in IL-3 bzw. TPO freiem Medium gewaschen und im Medium, das kein TPO bzw. IL-3 enthielt, resuspendiert. Diese Zellsuspension wurde dann zur Vertiefung einer 96 Tüpfelplatte (Costar), die TPO oder IL-3 und/oder Verbindung enthielt, in einer Menge von 10^4 Zellen/Vertiefung zugegeben. Die Zellen wurden dann für 48 bis 72 h bei 37°C in einem CO2 Inkubator inkubiert. Die proliferative Aktivität wurde bestimmt durch die Zugabe von WST (WST: Zell-Proliferations-Reagens; BM-Katalog-Nr. 1644807 "Tetrazolium-Salz").WST wird von proliferierenden Zellen zu Formazan umgewandelt und diese Umwandlung, als Maß für die Proliferation wird mittels OD (OD: optical density) bei 570 nm in einem ELISA Platten Meßgerät bestimmt.
# Zur Ermittlung der halbmaximalen Stimulation wurde vom maximal erzielten Signal der Background (Zellen ohne Substanz) abgezogen und dieser Wert durch 2 geteilt. Dieser Wert plus dem Background-Wert wurden dann zur Bestimmung der EC50 (halbmaximale excitatorv concentration; Substratkonzentration, bei der die Substanz ihre halbmaximale Wirksamkeit im BaF3-mpl Rezeptor Proliferationstest ausübt) herangezogen. In Tabelle 3 sind die EC50-Werte bespielhaft für drei untersuchte Verbindungen dargestellt.
# Die untersuchten Verbindungen stimulieren die Proliferation von mit mpl-Rezepror transfektierten BaF3 Zellen in einer Dosis abhängigen Weise. Die Proliferation von parenteralen Zell-Linien wird nicht stimuliert. Auch in Abwesenheit von TPO stimulieren die Verbindungen die Proliferation der BaF3/mpl-Zellen in wochenlanger Kultur. Tabelle 3
row,Compound,EC50 [µM]
1,O=[N+]([O-])c1ccc2c(N=Nc3ccc4ccccc4c3O)c(O)cc(S(=O)(=O)O)c2c1 [Beispiel 9],1.37
2,O=[N+]([O-])c1ccc2c(N=Nc3c(O)ccc4ccccc34)c(O)cc(S(=O)(=O)O)c2c1 [Beispiel 12],1.59
3,Cc1ccc(O)c(N=Nc2c(O)cc(S(=O)(=O)O)c3ccccc23)c1 [Beispiel 13],5.58

# Next, values leading:
row,EC50 [µM],Compound
1,4.48,Cc1ccc(NC(=O)c2cc3ccccc3c(N=Nc3cc(S(=O)(=O)O)ccc3O)c2O)c(C)c1 [Beispiel 15]
2,0.0728,"O=S(=O)(O)c1cccc2c(O)c(N=Nc3ccc(C(F)(F)F)cc3O)ccc12 [Beispiel 20, 5-Hydroxy-6-(2-hydroxy-4-trifluormethyl-phenylazo)naphthalin-1-sulfonsäure]"
